Patent US10093699B2, “Peptides with antimicrobial, anticancer and/or wound-healing promoting activities, pharmaceutical compositions containing the same, and use of the peptides with antimicrobial, anticancer and/or wound-healing promoting activities” (priority 2015, dated 2018)
In brackets after ≈: the same amount, converted by molar mass. Where a SMILES comes first, the peptide text is derived from it. [ ]: non-standard residue; d: D form. 2Nal = N[C@@H](Cc1ccc2ccccc2c1)C(=O)O

Tests used:
Assay type in all cases: cell-based
human fibroblast (HFW) = assay: MTT cytotoxicity to normal fibroblasts; details: MTT assay
Method: Human lung cancer line PC9 and A549, oral squamous cell carcinoma cell line OECM-1 were cultured in RPMI medium supplemented with 10% fetal bovine serum and antibiotic. Human tongue carcinoma cell line SAS, oral cancer cell line C9, and human diploid fibroblast (HFW) were cultured in DMEM medium supplemented with 10% fetal bovine serum and antibiotic. Cells were cultured in a humidified incubator containing 5% CO2 at 37° C.
The MTT assay was employed to determine the in vitro cytotoxicity. All cancer cell lines were seeded in 96-well plate with concentration 5000 cells/100 μl/well and incubated for 24 hours. HFW was seeded with 8000 cells/100 μl/well.
After medium was removed, 100 μl fresh medium containing peptide (ranging from 50 μM to 3.13 μM, HFW was treated with 75 μM and 100 μM peptide additionally) was added to the wells. Following 3, 12 or 24 hour incubation, fresh medium with MTT (0.5 mg/ml) was replaced and incubated for 3 hours. After medium/MTT was removed, DMSO was added at 100 μl for dissolving the formazan crystal. Cell survival rate was calculated by measuring the absorbance at 540 nm using Multi-labeled Microplate Reader (VICTOR3). For cancer cells, medium mixed with H2O2 (aq) represented positive control (all cells died) while medium only represented negative control. For normal cells, medium only represented positive control (all cells lived) while medium mixed with H2O2 (aq) represented negative control (all cells died).
The cytotoxicities of S1 and its analogs on human lung cancer cells (i.e, PC9, PC9-G and A549), human oral cancer cells (i.e, C9, OECM-1, and SAS), and human fibroblast (HFW) were evaluated by MTT assay for 3, 12 and 24 hours.

[1] = system: Staphylococcus aureus subsp strain (ATCC 25923, methicillin-resistant); assay: microbe, parasite or virus in culture
Method: (§1) Escherichia coli strain (ATCC 25922), Staphylococcus aureus subsp strain (ATCC 25923, methicillin-resistant), and Pseudomonas aeruginosa Migula strain (ATCC 27853, ampicillin-resistant) were used to test the antibacterial activity of the peptides. Bacteria were cultured in sterilized Mueller-Hinton (MH) culturing medium at 200 rpm and 37° C. for 8 hours.
(§2) After 8 hours culture, concentration of the inoculums were determined by measuring absorbance of optical density at 600 nm (OD 600=1, equal to approximately 10^8 CFU/mL) with UV/Visible spectrophotometer.
(§3) The antibacterial activities were determined by the standard broth microdilution method of National Committee for Clinical Laboratory Standards with the LYM broth. The LYM broth contains 5.4 mM KCl, 5.6 mM Na2HPO4, 0.5 mM MgSO4, and 1.0 mM sodium citrate. In addition, 0.4 mg of ZnCl2, 2.0 mg of FeCl3. 6H2O, 0.1 mg of CuSO4. 5H2O, 0.1 mg of MnSO4.H2O, 0.1 mg of Na2B4O7.10H2O, 700 mg of amino acid mixtures without tryptophan (Clontech), and 20 mg of L-Tryptophan were added per liter of medium. A vitamin mixture (100×, Sigma) and glucose at final concentration of 2% were also added.
(§4) 1 μl peptide solutions (ranging from 5000 μg/ml to 78 μg/ml in serial dilution) was prepared and mixed with 99 μl inoculum (5×10^5 CFU/ml) in polypropylene 96-well plate. The turbidity at OD 600 nm was measured by ELISA plate reader (Thermo Max, Molecular Devices, Sunnyvale, Calif.). The absorbance of culture medium and inoculum suspension without peptides were used as the negative and positive control, respectively. The minimum inhibitory concentration (MIC) value is the lowest concentration of peptide at which there is no obvious growth (equal or more than 90%). […] All peptides were tested in triplicate.

[2] = system: Escherichia coli strain (ATCC 25922); assay: microbe, parasite or virus in culture; details: ATCC25922, E. coli ATCC 25922, LYM control, read-out: Minimum inhibitory concentration (MIC)
Method: as §1, §2, §3, §4

Compound | degrees of cytotoxicities to HFW (rank order) (human fibroblast (HFW)) | Minimum inhibitory concentration (MIC) ([1]; ATCC 25923, 8 h) [µg/mL] | MIC [2] [µg/mL] | MIC ([1]; Staphylococcus aureus, ATCC25923, S. aureus ATCC 25923, LYM control, read-out: Minimum inhibitory concentration (MIC)) [µg/mL]
CC(=O)N[C@@H](Cc1ccc2ccccc2c1)C(=O)N[C@@H](Cc1ccc2ccccc2c1)C(=O)N[C@@H](CCCCN)C(=O)N[C@@H](CCCCN)C(=O)N[C@@H](Cc1c[nH]c2ccccc12)C(=O)N[C@@H](CCCNC(=N)N)C(=O)N[C@@H](CCCCN)C(=O)N[C@@H](Cc1c[nH]c2ccccc12)C(=O)N[C@@H](CC(C)C)C(=O)N[C@@H](C)C(=O)N[C@@H](CCCCN)C(=O)N[C@@H](CCCCN)C(N)=O [Nal2-S1, Ac-Nal-Nal-KKWRKWLAKK-NH2] (Ac-[2Nal][2Nal]KKWRKWLAKK-NH2) | S1 peptide<K4R2-Nal2-S1 peptide<K6-Nal2-S1 peptide<Nal2-S1 peptide | 3.1 (≈ 1.72 µM) |  | 
CC(=O)N[C@@H](CCCCN)C(=O)N[C@@H](CCCCN)C(=O)N[C@@H](CCCCN)C(=O)N[C@@H](CCCCN)C(=O)N[C@@H](CCCCN)C(=O)N[C@@H](CCCCN)C(=O)N[C@@H](Cc1ccc2ccccc2c1)C(=O)N[C@@H](Cc1ccc2ccccc2c1)C(=O)N[C@@H](CCCCN)C(=O)N[C@@H](CCCCN)C(=O)N[C@@H](Cc1c[nH]c2ccccc12)C(=O)N[C@@H](CCCNC(=N)N)C(=O)N[C@@H](CCCCN)C(=O)N[C@@H](Cc1c[nH]c2ccccc12)C(=O)N[C@@H](CC(C)C)C(=O)N[C@@H](C)C(=O)N[C@@H](CCCCN)C(=O)N[C@@H](CCCCN)C(N)=O [K6-Nal2-S1, Ac-KKKKKK-Nal-Nal-KKWRKWLAKK-NH2] (Ac-KKKKKK[2Nal][2Nal]KKWRKWLAKK-NH2) | S1 peptide<K4R2-Nal2-S1 peptide<K6-Nal2-S1 peptide<Nal2-S1 peptide |  |  | 
Ac-KKWRKWLAKK-NH2 [S1, Ac-KKWRKWLAKK-NH2, reference compound] | S1 peptide<K4R2-Nal2-S1 peptide<K6-Nal2-S1 peptide<Nal2-S1 peptide |  |  | 
CC1(C)S[C@@H]2[C@H](NC(=O)[C@H](N)c3ccccc3)C(=O)N2[C@H]1C(=O)O [AP, Ampicillin, reference compound] |  |  | 25 (≈ 71.5 µM) | 3.1 (≈ 8.87 µM)
